# Results taken from patent US20130053357A1, “SKIN IRRITATION SUPPRESSANT AND TRANSDERMAL PREPARATION” (HISAMITSU PHARMACEUTICAL CO., INC., priority 2010, published 2013).
# Read-outs that look alike come from different tables or passages of the source.
# Assays:
# [1] = tested on: human three-dimensional culture epidermal model (LabCyte EPI-MODEL); assay: Suppression by cholesterol of skin irritation mediator production induced by drugs in a human epidermal cell (Experiment 2); format: cell-based; conditions: 1% by mass of cholesterol; summary of Table 2
# Description: (§1) A human three-dimensional epidermal culture model obtained by multilayer-culturing a human normal epidermal cell (LabCyte EPI-MODEL, manufactured by Japan Tissue Engineering Co., Ltd.) was used. LabCyte is a cultured skin cultured in a transwell. For the experiment, LabCyte was used with the transwell.
# (§2) The experiment was conducted as below. First, LabCyte was put into a 24-well assay plate. Then, 1 ml of assay medium (Japan Tissue Engineering Co., Ltd.) was added so that it was brought into contact with a bottom surface of the cultured skin in each well of the 24-well assay plate, and was pre-cultured in an incubator with 5% of carbon dioxide concentration at 37° C. for 1 hour.
# (§3) The test solutions of each group were added to the cells, the culture solutions incubated for 48 hours were collected, and a production amount of each skin irritation mediator was measured. The skin irritation mediator was measured by using a commercially available ELISA kit (manufactured by R&D Systems, Inc.). A relative production amount of the skin irritation mediator in each test substance was calculated as below, when the production amount of the skin irritation mediator in the PMA Only Group was set to 100.
# Cholesterol was used as a test substance. The drugs shown in Table 2 were used as the cutaneous irritants.
# Tests were conducted by the following group composition. • Drug Only Group: A group with addition of only the drug dispersed in a vehicle, as a test solution. Concentrations of the drugs are shown in Table 2. • Drug Plus Cholesterol Group: A group with addition of the drug and 1% by mass of cholesterol which were dispersed in a vehicle, as a test solution.
# The experiment was conducted while other conditions were set in the same manner as in Experiment 1.
# [2] = tested on: shaved back of the rabbit; conditions: in vivo
# Description: <Examination of Reduction in Skin Irritation in a Rabbit by Cholesterol, −1>
# A 19-week-old JW female rabbit was subjected to an experiment.
# Subsequently, the transdermal preparation of each group was applied to a shaved back of the rabbit a single time for 24 hours. Erythema and swelling on the applied site were evaluated 1, 24 and 48 hours after peel-off of the transdermal preparation in accordance with the judgment standard of Draize et al. and an average value of the skin primary irritation index (PII) was calculated.
# [3] = tested on: human three-dimensional culture epidermal model (LabCyte EPI-MODEL); assay: Suppression by cholesterol of skin irritation mediator production induced by asenapine and LADA in a human epidermal cell (Experiment 6); format: cell-based; conditions: 1% by mass of cholesterol; summary of Tables 5 and 6
# Description: as §1, §2, §3
# Cholesterol was used as a test substance. Asenapine and lauric acid diethanolamide (LADA) were used as the cutaneous irritants.
# Tests were conducted by the following group composition. • Solvent Group: A group including only vehicle. Olive oil was used as a vehicle. • Skin Irritant Only Group: A group with addition of only cutaneous irritant dispersed in a vehicle, as a test solution. The concentration of asenapine maleate to be added was 0.6% (asenapine group), and that of LADA was 0.03% (LADA group). • Skin Irritant Plus Cholesterol Group: A group with addition of the drug and 1% by mass of cholesterol which were dispersed in a vehicle, as a test solution.
# The experiment was conducted while other conditions were set in the same manner as Experiment 1.
# [4] = tested on: human three-dimensional culture epidermal model (LabCyte EPI-MODEL); assay: Production of skin irritation mediators induced by PMA in human three-dimensional epidermal culture model (Experiment 1); format: cell-based; conditions: for activity at 1 %: Homo sapiens, test substance 1 mass % with PMA in olive oil, 48 hours
# Description: Changes in production amounts of skin irritation mediators by test substances were examined when cutaneous irritants were caused to act on a human three-dimensional culture epidermal model.
# as §1
# As test substances, there were used cholesterol (manufactured by Wako Pure Chemical Industries, Ltd.), β-sitosterol (manufactured by TAMA BIOCHEMICAL CO., LTD.), α-spinasterol (manufactured by ChromaDex, Inc.), ergosterol (manufactured by Wako Pure Chemical Industries, Ltd.), campesterol (manufactured by TAMA BIOCHEMICAL CO., LTD.), glycyrrhizin (manufactured by Wako Pure Chemical Industries, Ltd.), glycyrrhetinic acid (manufactured by Wako Pure Chemical Industries, Ltd.), ginsenoside (manufactured by Wako Pure Chemical Industries, Ltd.), squalene (manufactured by Wako Pure Chemical Industries, Ltd.), squalane (manufactured by Tokyo Chemical Industry Co., Ltd.) and lanosterol (manufactured by ChromaDex, Inc.), which are candidates of a skin irritation suppressant.
# As skin irritants, Phorbol 12-Myristate 13-Acetate (PMA, manufactured by Wako Pure Chemical Industries, Ltd.) was used. In addition, as vehicle, olive oil (manufactured by Wako Pure Chemical Industries, Ltd.) was used.
# Experiments were conducted by the following group composition. • PMA Only Group: A group with addition of only 0.00001 mol of PMA dispersed in a vehicle, as a test solution. • Test Substance Group: A group with addition of 0.00001 mol of PMA and the test substance which were dispersed in a vehicle, as a test solution.
# as §2
# Next, a cell survival rate was measured by the MTT method after causing the test solutions of each group to act. Specifically, 50 μL of the test solution of each group was added to the surface of the LabCyte after preculture, was cultured in the incubator with 5% of carbon dioxide concentration at 37° C. for 48 hours, then was transferred to the assay medium comprising 0.5 mg/ml of MTT reagent, and was cultured in the incubator with 5% of carbon oxide level at 37° C. for 3 hours. Then, LabCyte was immersed in 0.3 ml of an isopropanol solution, and the produced blue-purple formazan was extracted for 2 hours. After extraction, an absorbance at 570 nm was measured by a 96 microplate reader. The cell survival rate was calculated as below.
# Cell survival rate (%)=(absorbance of Test Substance Group)/(absorbance of PMA Only Group)×100
# Subsequently, a production amount of the skin irritation mediator at a test substance concentration with 80% or more of cell survival rate was measured. As skin irritation mediators, PGE2, IL-1α, IL-6, IL-8 were measured.
# as §3
# Relative production amount=(production amount of the mediator in Test Substance Group)/(production amount of the mediator in PMA Only Group)×100
# [5] = tested on: croton oil-induced mouse ear swelling; assay: Suppression of croton oil-induced mouse ear swelling reaction (Experiment 3); format: in vivo
# Description: <Suppression of Croton Oil-Induced Mouse Ear Swelling Reaction by the Test Substances>
# Suppression of mouse ear swelling was examined through the use of croton oil (Wako Pure Chemical Industries, Ltd.) as a swelling inducer. A 7-week-old ddY female mouse (SPF) was subjected to an experiment. As test substances, cholesterol, glycyrrhizin, glycyrrhetinic acid, squalene, ergosterol, squalane and lanosterol were used. As a vehicle, acetone (Wako Pure Chemical Industries, Ltd.) was used.
# Experiments were conducted by the following group composition. • Positive Control Group: A group which received only the vehicle as a primary test solution, and one hour after, received a 2% croton oil solution as a secondary test solution. • Test Substance Group: A group in which only the vehicle was administered as a primary test solution, and one hour after, a 2% croton oil solution including 1% by mass of test substance was administered as a secondary test solution.
# An inhibition ratio of ear swelling was calculated as below. In this test, a […] inflammation model is used to examine immediate swelling reactions. In accordance with the group composition, 25 μL of the primary test solution was uniformly coated on back sides of both ears in an etherize mouse, and one hour after, 25 μL of the secondary test solution was uniformly coated in accordance with the group composition. Prior to coating of the secondary test solution, a thickness of auricle was measured by DIAL […] GAUGE (OZAKI MFG CO., LTD.). Furthermore, the secondary test solution was administered, and 6 hours after, the auricular thickness was measured in the same way as mentioned above, and an increased amount of the auricular thickness was set by deducting the thickness measured prior to administration of the secondary test solution. The inhibition ratio of ear swelling was calculated as below.
# Inhibition ratio of ear swelling (%)=(increased amount of auricular thickness in Test Substance Group−increased amount of auricular thickness in Negative Control Group)/(increased amount of auricular thickness in Positive Control Group−increased amount of auricular thickness in Negative Control Group)×100
compound,measurement,setting,value
"CC(C)CCC[C@@H](C)[C@H]1CC[C@H]2[C@@H]3CC=C4C[C@@H](O)CC[C@]4(C)[C@H]3CC[C@]12C [Cholesterol, cholesterol]",Effect of cholesterol on drug-induced production of the skin irritation mediator (in words),[1],exhibited effects of suppressing of production of the skin irritation mediator on a wide range of drugs
same,"Skin primary irritation index (PII), average value",[2],reduces skin irritation due to the drug
same,Effect of cholesterol on skin irritation mediator production due to asenapine and LADA (in words),[3],exhibited effects of suppressing the skin irritation mediator production on skin irritation due to asenapine and LADA
same,activity at 1 %,[4]; read-out: Relative Production Amount of Skin Irritation Mediator when Production Amount in PMA Only Group is Set to 100: IL-1α,50%
same,activity at 1 %,[4]; read-out: Relative Production Amount of Skin Irritation Mediator when Production Amount in PMA Only Group is Set to 100: IL-6,0%
same,activity at 1 %,[4]; read-out: Relative Production Amount of Skin Irritation Mediator when Production Amount in PMA Only Group is Set to 100: IL-8,65%
same,activity at 1 %,[4]; read-out: Relative Production Amount of Skin Irritation Mediator when Production Amount in PMA Only Group is Set to 100: PGE2,17%
same,Effect on skin irritation mediator production by PMA (in words),[4]; summary of Table 1,exhibited effects of suppressing the skin irritation mediator production by PMA
same,Inhibition Ratio Of Ear Swelling,"[5]; ddY female mouse, 1% by mass of test substance in 2% croton oil solution, 25 μL on ears, auricular thickness 6 hours after",70.6%
same,Effect on croton oil-induced mouse ear swelling reaction (in words),[5]; summary of Table 3,suppress croton oil-induced mouse ear swelling reaction
